Test results taken from publication PMC11610403 (Journal of thrombosis and haemostasis : JTH, 2024).

Assays:
[1] = tested on: caspase-1 activity in activated THP-1 cells; assay: Caspase-1 activity assay in stimulated THP-1 cells; type: cell-based, human; details: P3 peptide in the presence of P1-47-66 (1.0 nM), Figure 2A
[2] = tested on: vascular leakage; details: given in vivo to mice in the absence of APC or any P1 peptide; cited from earlier work

| Substance | synergism with P1-47-66 for reducing caspase-1 activity [1] | vascular leakage in mice [2] |
| --- | --- | --- |
| P3-42-65: PAR3-derived peptide comprising residues 42-65 (GAPPNSFEEFPFSALEGWTGATIT; UniProt O00254 42-65, looked up, fragment) | reduces caspase-1 activity synergistically | reduce vascular leakage |
| P3-51-65: PAR3-derived peptide, residues 51-65 (FPFSALEGWTGATIT; UniProt O00254 51-65, looked up, fragment) | similarly showed synergism |  |
